Experiment: Inhibition of Escherichia coli FimH by competitive binding assay

CNC(=O)c1cccc(-c2ccc(O[C@H]3O[C@H](CO)[C@@H](O)[C@H](C(O)[C@H]4O[C@H](CO)[C@@H](O)[C@H](O)[C@@H]4O)[C@@H]3O)cc2)c1 (stereo partly drawn)
Kd: 29 nM

O=C1NCC(c2ccc(O[C@H]3O[C@H](CO)[C@@H](O)[C@H](C[C@H]4O[C@H](CO)[C@@H](O)[C@H](O)[C@@H]4O)[C@@H]3O)cc2)=C(O)N1
Kd: 111 nM

CNC(=O)c1ccc(-c2ccc(C)c(O[C@H]3O[C@H](CO)[C@@H](O)[C@H](C[C@H]4O[C@H](CO)[C@@H](O)[C@H](O)[C@@H]4O)[C@@H]3O)c2)cc1
Kd: 19 nM

Source: ChEMBL document CHEMBL3351953, “Inhibition of the Bacterial Adhesin FimH May Potentially Treat Inflammatory Bowel Diseases (IBD)” (ACS Med Chem Lett, 2014)
